# From ChEMBL document CHEMBL1201862, “PubChem BioAssay data set” (2004)
# Activity calls are given as the source filed them.
# Experiments:
# [1] = molecular target: T1, Endoribonuclease toxin MazF (Escherichia coli K-12, UniProt P0AE70); assay: MazF endoribonuclease activators, SAR follow-up, biochemical, fluorescence, single-stranded RNA substrate (AID 588603); assay type: functional
# T1 sequence (P0AE70 whole entry): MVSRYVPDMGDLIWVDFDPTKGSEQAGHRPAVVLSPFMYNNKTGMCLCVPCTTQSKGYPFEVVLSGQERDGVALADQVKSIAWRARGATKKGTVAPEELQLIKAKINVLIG
# MEF = assay: SAR analysis of small molecule cytotoxicity of MazEF TA System activators in embryonic fibroblast (MEF) cells. [Related pubchem assays (depositor defined):AID504720, AID504743]; assay type: functional; conditions: Mus musculus
# [2] = molecular target: T1, Endoribonuclease toxin MazF; assay: SAR analysis of small molecule activators of the MazEF TA System via a fluorescence-based single-stranded RNase assay counterscreen. [Related pubchem assays (depositor defined):AID504720, AID504743]; assay type: functional
# [3] = molecular target: T1, Endoribonuclease toxin MazF; assay: MazF toxin RNase activators, dose response, biochemical, fluorescence, single-stranded RNA substrate, uHTS hits (AID 588481); assay type: functional
# [4] = molecular target: T1, Endoribonuclease toxin MazF; assay: fluorescent RNA oligo signal without MazF, dose response, counter-screen for MazEF activator project, biochemical, fluorescence, single-stranded RNase substrate (AID 588502); assay type: functional
# H4 = assay: Luminescence Cell-Based Dose Response HTS to Identify Activators of 5'UTR Stem-Loop Driven Prion Protein mRNA Translation in H4 Neuroglioblastoma Cells. [Related pubchem assays: 1829 (Project Summary), 1814 (Primary HTS)]; assay type: functional; conditions: Homo sapiens
# [5] = Luminescence Cell-Based Dose Response HTS to Identify Activators of Luciferase Translation or Activity in H4 […] Cells. [Related pubchem assays: 1829 (Project Summary), 1814 (Primary HTS)]; assay type: functional
# [6] = molecular target: T2, High affinity choline transporter 1 (Homo sapiens, UniProt Q9GZV3); assay: CHT activators, dose response, cell-based, 10-point CRC, membrane potential dye (AID 602376); assay type: functional
# T2 sequence (Q9GZV3 whole entry): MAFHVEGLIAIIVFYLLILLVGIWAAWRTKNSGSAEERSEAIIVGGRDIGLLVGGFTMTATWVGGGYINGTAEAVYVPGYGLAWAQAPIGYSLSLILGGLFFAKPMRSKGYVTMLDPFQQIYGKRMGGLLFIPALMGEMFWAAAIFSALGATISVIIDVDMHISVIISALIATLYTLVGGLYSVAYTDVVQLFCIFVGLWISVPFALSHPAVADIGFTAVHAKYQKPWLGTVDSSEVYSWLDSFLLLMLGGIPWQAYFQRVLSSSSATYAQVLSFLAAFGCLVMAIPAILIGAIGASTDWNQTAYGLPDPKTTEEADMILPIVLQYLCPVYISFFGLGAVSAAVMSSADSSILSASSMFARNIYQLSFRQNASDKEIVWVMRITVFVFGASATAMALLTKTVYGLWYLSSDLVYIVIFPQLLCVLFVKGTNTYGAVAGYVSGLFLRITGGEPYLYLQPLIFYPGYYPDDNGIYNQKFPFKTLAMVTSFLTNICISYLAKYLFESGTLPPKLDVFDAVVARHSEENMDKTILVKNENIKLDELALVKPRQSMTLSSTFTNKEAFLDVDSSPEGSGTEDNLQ
# [7] = molecular target: Benomyl/methotrexate resistance protein (Candida albicans, UniProt P28873); assay: CaMdr1 efflux pump inhibitor potency, dose response, singleplex, Cherry Pick2 set (AID 623992); assay type: functional; conditions: read-out: EC50_MICROM
# Sequence of Benomyl/methotrexate resistance protein (P28873 whole entry): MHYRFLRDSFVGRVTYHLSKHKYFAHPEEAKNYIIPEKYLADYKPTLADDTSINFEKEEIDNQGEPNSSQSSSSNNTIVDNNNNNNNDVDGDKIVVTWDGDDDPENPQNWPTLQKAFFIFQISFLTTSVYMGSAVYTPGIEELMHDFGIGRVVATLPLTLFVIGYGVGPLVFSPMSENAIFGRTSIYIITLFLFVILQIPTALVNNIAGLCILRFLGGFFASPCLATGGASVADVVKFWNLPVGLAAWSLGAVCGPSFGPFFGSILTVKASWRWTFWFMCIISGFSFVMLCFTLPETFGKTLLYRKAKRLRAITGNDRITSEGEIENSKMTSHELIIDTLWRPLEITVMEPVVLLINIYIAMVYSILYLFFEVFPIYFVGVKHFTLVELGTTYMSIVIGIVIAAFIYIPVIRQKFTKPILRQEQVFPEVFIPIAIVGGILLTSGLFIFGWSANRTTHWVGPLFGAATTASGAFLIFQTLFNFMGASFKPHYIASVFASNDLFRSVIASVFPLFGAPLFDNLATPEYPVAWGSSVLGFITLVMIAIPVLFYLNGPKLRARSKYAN
# Candida albicans [8] = assay: fluconazole resistance reversal in C. albicans, dose response, CaCi-2 strain, Alamar Blue, dry powder, set 4 (AID 488943); assay type: functional, organism-based
# Candida albicans [9] = assay: growth inhibition of azole-resistant C. albicans, dose response, CaCi-8 strain, Alamar Blue, dry powder, set 2 (AID 488909); assay type: functional, organism-based
# Candida albicans [10] = assay: C. albicans growth inhibition with fluconazole, dose response, antifungal resistance reversal project, CaCi-2 strain, Alamar Blue, dry powder, set 2 (AID 488930); assay type: functional, organism-based
# Candida albicans [11] = assay: growth inhibition of resistant C. albicans, dose response, CaCi-8 strain, fluconazole, dry powder, set 4 (AID 488950); assay type: functional, organism-based
# HEK293 [12] = assay: cytotoxicity in HEK293T NF-kB-Luc cells, SAR follow-up, cytotoxicity control for NF-kB activator project, cell-based, resazurin fluorescence (AID 493251); assay type: functional; conditions: Homo sapiens
# Jurkat = assay: SAR Analysis of small molecule inhibitors of T-cell specific antigen receptor-induced NF-kB activation in a Jurkat cell line using a luminescence assay - Set 2. [Related pubchem assays (depositor defined):AID435003, AID435012, AID465]; assay type: functional, cell-based; conditions: Homo sapiens
# HEK293 [13] = assay: SAR Analysis of small molecule inhibitors of T-cell specific antigen receptor-induced NF-kB activation in a HEK-293T cell line using a luminescence assay - Set 2. [Related pubchem assays (depositor defined):AID435003, AID435012, AID489026]; assay type: functional, cell-based; conditions: Homo sapiens
compound,measurement,setting,value
O=C1c2ccccc2C(Nc2ccc(S(=O)(=O)N3CCCCCC3)cc2)N1c1ccccn1 (stereo unspecified),EC50,[1],19.3 µM (active)
same,CC50,MEF,> 99 µM (inactive)
same,EC50,[2],> 99 µM (inactive)
same,EC50,[3],16.1 µM (active)
same,EC50,[4],> 99 µM (inactive)
CCC1=[N+](CC(=O)c2ccc(C)cc2)CCn2c(C)ccc21,EC50,H4,28.3 µM (active)
same,EC50,[5],> 120 µM (not active)
same,EC50,[6],13 µM (active)
O=C(/C=C/c1cccs1)N1CCC2(CC1)Oc1ccc(F)cc1C(=O)C21CC(c2ccccc2)=NO1 (stereo unspecified),EC50,[7],29.7 µM (active)
O=C(c1ccc(Cl)cc1)N1CCN(c2ccnc3ccc(Cl)cc23)CC1,AC50,Candida albicans [8],0.397 µM (active)
same,AC50,Candida albicans [9],9.92 µM (active)
same,AC50,Candida albicans [10],< 0.8 µM (active)
same,AC50,Candida albicans [11],1.47 µM (active)
N#Cc1cccc(NC(=O)c2ccc([N+](=O)[O-])o2)c1,IC50,HEK293 [12],57.4 µM (inactive)
same,IC50,Jurkat,18.1 µM (active)
same,IC50,HEK293 [13],32.9 µM (inactive)
